From patent US20240180886A1, “INHIBITORS OF PROTEIN TYROSINE PHOSPHATASE, COMPOSITIONS, AND METHODS OF USE” (BRISTOL-MYERS SQUIBB COMPANY, priority 2022, published 2024)

What was measured:
PTPN2 [1] = target: T1, PTPN2 (Homo sapiens (Human), UniProt P17706); experiment: PhosphoSens assay (PTPN2 BCHEM); type: biochemical; settings: substrate AQT0264 20 μM, PTPN2 150 pM
Protocol: A PhosphoSens® kinase assay was performed as described by the vendor (AssayQuant Technologies, Marlborough, MA). Briefly, 1000× solutions of compounds were prepared in DMSO via serial dilution of the 10 mM DMSO stocks using 3-fold intervals in a 384-well reagent plate. 50 nL of the compound dilution series was then added to the corresponding wells of a 384-well assay plate. […] Finally, […] of 5× PTPN2 enzyme stock was added to each well of the assay plate for a final enzyme concentration of 150 pM. Reaction progress curves were collected by sampling fluorescence intensity at the excitation wavelength 360 nm (λex360) and emission wavelength 480 nm (λem480) every 71 seconds for one hour using a Synergy H4 plate reader (BioTek Instruments/Agilent Technologies, Winooski, VT) at room temperature.
Target sequence in this assay (P17706 whole entry): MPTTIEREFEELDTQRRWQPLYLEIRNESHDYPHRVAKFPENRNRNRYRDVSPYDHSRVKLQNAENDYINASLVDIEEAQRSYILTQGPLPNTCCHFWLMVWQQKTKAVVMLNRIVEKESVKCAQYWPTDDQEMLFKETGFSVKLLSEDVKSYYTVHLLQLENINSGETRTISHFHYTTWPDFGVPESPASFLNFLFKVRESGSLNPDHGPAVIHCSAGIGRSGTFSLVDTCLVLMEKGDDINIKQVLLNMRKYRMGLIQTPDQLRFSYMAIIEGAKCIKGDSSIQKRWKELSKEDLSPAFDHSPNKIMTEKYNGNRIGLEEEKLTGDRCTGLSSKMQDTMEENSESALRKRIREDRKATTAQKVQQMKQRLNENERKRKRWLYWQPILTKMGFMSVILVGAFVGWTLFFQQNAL

PTPN2 [2] = target: T1, PTPN2; experiment: Phosphatase activity assay using DiFMUP as substrate; type: biochemical; settings: PTPN2 0.15 nM, 10 mM DTT
Protocol: The PTPN2 biochemical assay was performed as follows, a 5× stock solution of human PTPN2 (SRP5075, MilliporeSigma, Burlington, MA) and a 1.25× stock solution of DiFMUP (D6567, ThermoFisher Scientific, Waltham, MA), were prepared in 1× reaction buffer consisting of 50 mM HEPES, pH 7.4, 1 mM EDTA, 150 mM NaCl, 0.2 mg/mL BSA, 100 U/mL catalase and 10 mM DTT. […] of the DiFMUP substrate solution, for a final concentration of […] DiFMUP substrate, was added to a Corning 3574 384-well, white, non-binding surface microtiter plate containing […] of serially diluted test compounds prepared in DMSO. The reactions were started with the addition of […] of the enzyme solution, for a final PTPN2 concentration of 0.15 nM, and monitored every 105 seconds for 60 minutes at λEX 360/λEM 460 in a BioTek Synergy HTX plate reader (Agilent Technologies, Santa Clara, CA) at room temperature. The initial linear portions of the progress curves were fit according to a linear equation to yield the slopes and converted to % inhibition based on a value of 100% activity for the no inhibitor treated control. IC50 values of each compound were obtained by fitting the % inhibition-compound concentration curves using Dotmatics software (Dotmatics, Bishops Stortford, Hertfordshire, England),
Target sequence in this assay (P17706 other isoform, or with tags, fused parts or gaps isoform P17706-2): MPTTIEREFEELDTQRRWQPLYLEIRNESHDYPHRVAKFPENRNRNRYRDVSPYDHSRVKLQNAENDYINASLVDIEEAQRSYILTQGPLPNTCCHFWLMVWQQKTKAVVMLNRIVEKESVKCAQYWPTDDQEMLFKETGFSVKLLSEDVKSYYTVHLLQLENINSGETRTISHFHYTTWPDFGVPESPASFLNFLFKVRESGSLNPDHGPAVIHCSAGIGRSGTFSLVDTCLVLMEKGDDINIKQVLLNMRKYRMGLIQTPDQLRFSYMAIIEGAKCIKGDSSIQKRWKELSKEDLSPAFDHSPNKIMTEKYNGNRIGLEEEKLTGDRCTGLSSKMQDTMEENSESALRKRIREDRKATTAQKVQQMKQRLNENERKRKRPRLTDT

[3] = test system: phosphorylated STAT1 in B16-F10 cells; experiment: Phospho-STAT1 (Tyr701) HTRF assay in B16-F10 cells with IFN-gamma; type: cell-based; settings: mouse IFN-gamma 100 ng/mL, 1 hour, read-out: pSTAT1 HTRF B16F10 EC50
Protocol: B16-F10 cells (ATCC, Manassas, VA, #CRL-6475) were cultured in DMEM growth medium (ThermoFisher Scientific, Waltham, MA, #11995-040) supplemented with 10% heat-inactivated FBS (ThermoFisher Scientific, #16140-071) and 1% pen/strep (ThermoFisher Scientific, #15140-122). The cells were seeded into a white opaque 384-well tissue culture treated microplate (PerkinElmer, Waltham, MA, #6007688) at a density of 10,000 cells/well in 20 uL total volume and incubated overnight at 37 C and 5% CO2. 30 nL of compounds dissolved in DMSO were then transferred from a source plate into target wells with the Echo650 acoustic liquid handler (Beckman Coulter, Indianapolis, IN). Negative control wells received 30 nL of DMSO only (0.15% final concentration). Plates were returned to the incubator for 1 hour and then cells were treated with either 5 uL of growth medium or 5 uL of growth medium containing 500 ng/mL of recombinant mouse IFN-gamma protein (R&D Systems, Minneapolis, MN, #485-MI/CF, 100 ng/mL final concentration) using the Assist automated pipetting platform (INTEGRA Biosciences, Hudson, NH). Plates were incubated at 37 C for 1 hour and assayed for phosphorylated STAT1 protein levels with the phospho-STAT1 (Tyr701) HTRF kit (Cisbio, Bedford, MA, #63ADK026PEH) according to the manufacturer's instructions.

B16-F10 cells = experiment: Cell proliferation assay (CellTiter-Glo) in B16-F10 cells with IFN-gamma; type: cell-based; settings: 120 h, mouse IFN-gamma 10 ng/mL, read-out: PTPN2 Prolif 5d B16F10 EC50

Row | SMILES | IC50 (PTPN2 [1]) [nM] | IC50 (PTPN2 [2]) [nM] | EC50 [3] [nM] | EC50 (B16-F10 cells) [nM]
1 | O=C1CN(c2c(O)cc(CNc3cc(C(F)(F)F)ccn3)cc2F)S(=O)(=O)N1 [EXAMPLE 2, 5-[2-fluoro-6-hydroxy-4-[[[4-(trifluoromethyl)-2-pyridyl]amino]methyl]phenyl]-1,1-dioxo-1,2,5-thiadiazolidin-3-one] | 80 | 350 | 2430 | 2670
2 | COc1cnc(NCc2cc(O)c(N3CC(=O)NS3(=O)=O)c(F)c2)cc1OC [EXAMPLE 26, 5-[4-[[(4,5-dimethoxy-2-pyridyl)amino]methyl]-2-fluoro-6-hydroxy-phenyl]-1,1-dioxo-1,2,5-thiadiazolidin-3-one] | 10 | 10 | 340 | 740
3 | Cc1cnc(NCc2cc(O)c(N3CC(=O)NS3(=O)=O)c(F)c2)c(C)c1 [EXAMPLE 24, 5-[4-[[(3,5-dimethyl-2-pyridyl)amino]methyl]-2-fluoro-6-hydroxy-phenyl]-1,1-dioxo-1,2,5-thiadiazolidin-3-one] | 100 | 80 | 5400 | 4560
4 | Cc1cccc(NCc2cc(O)c(N3CC(=O)NS3(=O)=O)c(F)c2)n1 [EXAMPLE 17, 5-[2-fluoro-6-hydroxy-4-[[(6-methyl-2-pyridyl)amino]methyl]phenyl]-1,1-dioxo-1,2,5-thiadiazolidin-3-one] | 1 | 4 | 80 | 160
5 | Cc1ccc(NCc2cc(O)c(N3CC(=O)NS3(=O)=O)c(F)c2)nc1C [EXAMPLE 19, 5-[4-[[(5,6-dimethyl-2-pyridyl)amino]methyl]-2-fluoro-6-hydroxy-phenyl]-1,1-dioxo-1,2,5-thiadiazolidin-3-one] | 2 | 5 | 310 | 190
6 | COc1cnc(NCc2cc(O)c(N3CC(=O)NS3(=O)=O)c(F)c2)c(OC)c1 [EXAMPLE 30, 5-[4-[[(3,5-dimethoxy-2-pyridyl)amino]methyl]-2-fluoro-6-hydroxy-phenyl]-1,1-dioxo-1,2,5-thiadiazolidin-3-one] | 20 | 140 | 1780 | 1720
7 | CC(C)(C)c1ccc(NCc2cc(O)c(N3CC(=O)NS3(=O)=O)c(F)c2)nc1 [EXAMPLE 4, 5-[4-[[(5-tert-butyl-2-pyridyl)amino]methyl]-2-fluoro-6-hydroxy-phenyl]-1,1-dioxo-1,2,5-thiadiazolidin-3-one] | 30 | 8 | 1030 | 670
8 | CC(C)c1ccc(NCc2cc(O)c(N3CC(=O)NS3(=O)=O)c(F)c2)nc1 [EXAMPLE 45, 5-[2-fluoro-6-hydroxy-4-[[(5-isopropyl-2-pyridyl)amino]methyl]phenyl]-1,1-dioxo-1,2,5-thiadiazolidin-3-one] | 7 | 60 | 1490 | 1770
9 | Cc1cc(C)nc(NCc2cc(O)c(N3CC(=O)NS3(=O)=O)c(F)c2)c1 [EXAMPLE 5, 5-[4-[[(4,6-dimethyl-2-pyridyl)amino]methyl]-2-fluoro-6-hydroxy-phenyl]-1,1-dioxo-1,2,5-thiadiazolidin-3-one] | 1 | 1 | 30 | 50
10 | Cc1ccnc(NCc2cc(O)c(N3CC(=O)NS3(=O)=O)c(F)c2)c1C [EXAMPLE 25, 5-[4-[[(3,4-dimethyl-2-pyridyl)amino]methyl]-2-fluoro-6-hydroxy-phenyl]-1,1-dioxo-1,2,5-thiadiazolidin-3-one] | 90 | 130 | 10200 | 7670
11 | O=C1CN(c2c(O)cc(CNc3ncccc3C(F)(F)F)cc2F)S(=O)(=O)N1 [EXAMPLE 3, 5-[2-fluoro-6-hydroxy-4-[[[3-(trifluoromethyl)-2-pyridyl]amino]methyl]phenyl]-1,1-dioxo-1,2,5-thiadiazolidin-3-one] | 570 | 1000 | > 15000 | > 15000
